ChEMBL document CHEMBL5576054, “Lead compound profiling for small molecule inhibitors of the REV1-CT/RIR Translesion synthesis Protein-Protein interaction” (Bioorg Med Chem, 2024)
Values after ≈ are worked out from the molar mass of the structure shown. Each block holds one compound with its values, some of them ahead of it.

What was measured:
[1] = Metabolic stability in human liver microsomes assessed as half life at 1 uM incubated upto 60 mins by LC-MS/MS analysis; type: ADME, Microsome; conditions: 1 h
[2] = Metabolic stability in human liver microsomes assessed as intrinsic clearance at 1 uM incubated upto 60 mins by LC-MS/MS analysis; type: ADME, Microsome; conditions: 1 h
[3] = Disruption of C-terminal REV-1/FAM-tagged Pol kappa RIR (unknown origin) interaction incubated for 1 hr by FP assay; set-up: species or system Homo sapiens
[4] = Solubility of compound in PBS at pH 4; type: physicochemical; conditions: buffer
DNA repair protein REV1 = biological target: T1, DNA repair protein REV1 (Homo sapiens, UniProt Q9UBZ9); assay: Binding affinity to C-terminal human REV-1 assessed as dissociation constant incubated for 30 mins by MST assay
T1 sequence (Q9UBZ9 whole entry): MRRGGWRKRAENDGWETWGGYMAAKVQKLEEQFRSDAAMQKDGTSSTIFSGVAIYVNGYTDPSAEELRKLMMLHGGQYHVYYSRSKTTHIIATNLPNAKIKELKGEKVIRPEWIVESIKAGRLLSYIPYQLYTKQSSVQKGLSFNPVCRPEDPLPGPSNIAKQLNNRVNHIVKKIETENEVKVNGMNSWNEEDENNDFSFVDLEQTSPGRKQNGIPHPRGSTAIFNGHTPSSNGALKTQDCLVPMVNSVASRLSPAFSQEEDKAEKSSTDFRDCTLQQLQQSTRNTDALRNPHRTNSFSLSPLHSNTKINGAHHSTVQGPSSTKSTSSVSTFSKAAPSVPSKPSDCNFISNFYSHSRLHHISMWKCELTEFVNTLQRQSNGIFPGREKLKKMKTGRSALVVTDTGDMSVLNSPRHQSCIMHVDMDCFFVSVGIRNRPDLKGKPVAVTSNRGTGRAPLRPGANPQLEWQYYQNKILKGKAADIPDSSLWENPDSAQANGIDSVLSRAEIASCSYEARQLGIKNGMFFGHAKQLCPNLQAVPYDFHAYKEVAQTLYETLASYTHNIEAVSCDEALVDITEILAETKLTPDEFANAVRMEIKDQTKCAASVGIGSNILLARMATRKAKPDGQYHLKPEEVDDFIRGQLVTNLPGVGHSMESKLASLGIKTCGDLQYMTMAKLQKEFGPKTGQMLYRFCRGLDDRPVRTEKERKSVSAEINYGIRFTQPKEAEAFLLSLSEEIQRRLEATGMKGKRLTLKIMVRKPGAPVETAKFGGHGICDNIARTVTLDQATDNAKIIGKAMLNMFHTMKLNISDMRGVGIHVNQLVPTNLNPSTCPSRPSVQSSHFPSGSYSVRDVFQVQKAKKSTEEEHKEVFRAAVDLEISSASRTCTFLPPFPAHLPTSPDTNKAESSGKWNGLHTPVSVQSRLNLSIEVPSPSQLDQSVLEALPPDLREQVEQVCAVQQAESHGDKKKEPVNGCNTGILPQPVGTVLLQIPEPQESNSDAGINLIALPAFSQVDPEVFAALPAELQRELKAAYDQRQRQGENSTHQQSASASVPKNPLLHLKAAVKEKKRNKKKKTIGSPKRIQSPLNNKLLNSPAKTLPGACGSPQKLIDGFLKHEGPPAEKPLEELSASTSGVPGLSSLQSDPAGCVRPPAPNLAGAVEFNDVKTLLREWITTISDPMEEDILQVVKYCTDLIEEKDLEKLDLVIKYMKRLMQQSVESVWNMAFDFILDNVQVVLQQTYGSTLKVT

[5] = Solubility of compound in PBS at pH 7.4; type: physicochemical

IC50 [3]: > 100 µM
Structure (SMILES): CCCc1cc(C(=O)OCC)c(NC(=O)c2cc(O)cc(O)c2)s1

t1/2 [1]: 49.9 min | intrinsic clearance (CLint) [2]: 27.8 µL/min/mg | solubility [4]: 11.7 µM (≈ 4.57 µg/mL) | solubility [5]: 10 µM (≈ 3.91 µg/mL)
Structure (SMILES): CCCCc1ccc(-n2nnc(C(=O)N(C)C3CCS(=O)(=O)C3)c2C)cc1 (stereo unspecified)

t1/2 [1]: 23.6 min | intrinsic clearance (CLint) [2]: 58.8 µL/min/mg | IC50 [3]: 6.2 µM | solubility [4]: 1.3 µM (≈ 0.519 µg/mL) | Kd (DNA repair protein REV1): > 200 µM | solubility [5]: 0.7 µM (≈ 0.28 µg/mL)
Structure (SMILES): COc1ccc(OC)c(-c2csc(N3CCN(C(=O)c4ccco4)CC3)n2)c1

IC50 [3]: > 100 µM
Structure (SMILES): COC(=O)c1ccsc1NC(=O)C1CCN(C(C)=O)CC1

Further lines, the compound ahead of its results:

Structure (SMILES): Cc1cc(C)c2nc(-c3ccncc3)cc(C(=O)NCCCn3ccnc3)c2c1
t1/2 [1]: 4.7 min | intrinsic clearance (CLint) [2]: 148 µL/min/mg | IC50 [3]: 6.7 µM | solubility [4]: 268 µM (≈ 103 µg/mL) | Kd (DNA repair protein REV1): > 200 µM | solubility [5]: 146 µM (≈ 56.3 µg/mL)

Structure (SMILES): CCCc1cc(C(=O)OCC)c(NC(=O)c2ccccc2)s1
IC50 [3]: 4.4 µM

Structure (SMILES): CCOC(=O)c1c(NC(=O)C2CCN(C(C)=O)CC2)sc2c1CCCC2
IC50 [3]: 5.8 µM

Structure (SMILES): C=CCOc1cccc(C(=O)Nc2sc(CCC)cc2C(=O)OCC)c1
IC50 [3]: 66.2 µM
